Here are results for 26 molecules from ChEMBL document CHEMBL4038298, “Ester- and amide-containing multiQACs: Exploring multicationic soft antimicrobial agents” (Bioorg Med Chem Lett, 2017).

What is called MIC is the lowest concentration found to suppress growth.

SMILES strings stand for the structures.

Data set [1] can be described thus: Stability of the compound in pure water by LCMS method. It counts as physicochemical.
Another data set has as its system Pseudomonas aeruginosa. Nature of the data set: Antibacterial activity against Pseudomonas aeruginosa PAO1 incubated for 72 hrs. It counts as functional. The following applies: PAO1, 72 h.
In data set [2] the test system is Staphylococcus aureus. The data set can be described thus: Antibacterial activity against community acquired methicillin-resistant Staphylococcus aureus USA300-0114 incubated for 72 hrs. It counts as functional. Particulars: USA300-0114, 72 h.
The subject of a further data set is Enterococcus faecalis. The data set can be described thus: Antibacterial activity against Enterococcus faecalis OG1RF incubated for 72 hrs. In kind it is functional.
The subject of the next data set is Escherichia coli. The data set can be described thus: Antibacterial activity against Escherichia coli MC4100 incubated for 72 hrs. In kind it is functional. The following applies: str. K-12 substr. MC4100, 72 h.
Data set [3] has as its system Staphylococcus aureus. Nature of the data set: Antibacterial activity against hospital-acquired methicillin-resistant Staphylococcus aureus ATCC 33592 incubated for 72 hrs. In kind it is functional. The following applies: ATCC 33592, 72 h.
The subject of data set [4] is Staphylococcus aureus. Nature of the data set: Antibacterial activity against methicillin-susceptible Staphylococcus aureus SH1000 incubated for 72 hrs. Particulars: SH1000, 72 h. It counts as functional.

Consider `CCCCCCCCCCNC(=O)C[N+](C)(C)Cc1ccccc1.[Br-]`, for which the Stability result in data set [1] is given as “Stable”. The MIC stood at 125 µM in the data set with Pseudomonas aeruginosa; 8 µM in the data set on Staphylococcus aureus [2]; 16 µM in the data set on Enterococcus faecalis; 32 µM in the data set on Escherichia coli; 8 µM in the data set on Staphylococcus aureus [3]; 8 µM in the data set with Staphylococcus aureus [4].
On to `CCCCCCCCOC(=O)C[N+](C)(C)Cc1ccccc1.[Br-]`, for which, in data set [1], the Stability entry is on record as “Stable”. Moreover, the MIC was above 250 µM against Pseudomonas aeruginosa; 250 µM in the data set with Staphylococcus aureus [2]; 250 µM against Enterococcus faecalis; 250 µM against Escherichia coli; 125 µM in the data set on Staphylococcus aureus [3]; 125 µM with Staphylococcus aureus [4].
For the molecule `CCCCCCCOC(=O)C[N+](C)(C)CCCN(CCC[N+](C)(C)CC(=O)OCCCCCCC)CCC[N+](C)(C)CC(=O)OCCCCCCC.[Br-].[Br-].[Br-]`, in data set [1], the Stability entry was “Stable”. The MIC in the data set on Pseudomonas aeruginosa is above 250 µM; with Staphylococcus aureus [2], 8 µM; with Enterococcus faecalis, 32 µM; in the data set with Escherichia coli it was 63 µM; with Staphylococcus aureus [3], 32 µM; against Staphylococcus aureus [4], 16 µM.
For the molecule `CCCCCCCOC(=O)C[N+](C)(C)CCN1CC[N+](C)(CC(=O)OCCCCCCC)CC1.[Br-].[Br-]`, the Stability result in data set [1] is recorded as “Stable”. Also, the MIC with Pseudomonas aeruginosa was above 250 µM; against Staphylococcus aureus [2], 250 µM; against Enterococcus faecalis, above 250 µM; in the data set on Escherichia coli, above 250 µM; against Staphylococcus aureus [3], above 250 µM; in the data set with Staphylococcus aureus [4], above 250 µM.
For `CCCCCCCCCCOC(=O)C[N+](C)(C)CCC[N+](C)(CCC[N+](C)(C)CC(=O)OCCCCCCCCCC)CC(=O)OCCCCCCCCCC.[Br-].[Br-].[Br-]`, the Stability entry in data set [1] is “Stable”. The MIC stood at 16 µM against Pseudomonas aeruginosa; 4 µM against Staphylococcus aureus [2]; 8 µM against Enterococcus faecalis; 8 µM against Escherichia coli; 4 µM against Staphylococcus aureus [3]; 4 µM in the data set on Staphylococcus aureus [4].
Take `CCCCCCCCOC(=O)C[N+](C)(C)CC[N+](C)(C)CC(=O)OCCCCCCCC.[Br-].[Br-]`: in data set [1], the Stability entry was “Stable”. Also, the MIC came to 125 µM against Pseudomonas aeruginosa; 16 µM in the data set with Staphylococcus aureus [2]; 63 µM against Enterococcus faecalis; 63 µM against Escherichia coli; 32 µM in the data set on Staphylococcus aureus [3]; 32 µM against Staphylococcus aureus [4].
In the case of `CCCCCCCCCCCCCCOC(=O)C[N+](C)(C)CCN1CC[N+](C)(CC(=O)OCCCCCCCCCCCCCC)CC1.[Br-].[Br-]`, the Stability result in data set [1] is “Stable”. The MIC was above 250 µM with Pseudomonas aeruginosa; 250 µM with Staphylococcus aureus [2]; above 250 µM in the data set on Enterococcus faecalis; above 250 µM against Escherichia coli; above 250 µM against Staphylococcus aureus [3]; above 250 µM against Staphylococcus aureus [4].
For `CCCCCCCCCCNC(=O)C[N+](C)(C)CC[N+](C)(C)CC(=O)NCCCCCCCCCC.[Br-].[Br-]`, the Stability result in data set [1] is reported as “Stable”. Also, the MIC against Pseudomonas aeruginosa was 2 µM; against Staphylococcus aureus [2], 0.5 µM; against Enterococcus faecalis, 1 µM; against Escherichia coli, 1 µM; in the data set with Staphylococcus aureus [3], 1 µM; in the data set with Staphylococcus aureus [4], 1 µM.
In the case of `CCCCCCCCCOC(=O)C[N+](C)(C)CC[N+](C)(C)CC(=O)OCCCCCCCCC.[Br-].[Br-]`, the Stability entry in data set [1] was “Stable”. Moreover, the MIC was found to be 32 µM in the data set with Pseudomonas aeruginosa; 4 µM in the data set on Staphylococcus aureus [2]; 16 µM in the data set on Enterococcus faecalis; 16 µM against Escherichia coli; 8 µM against Staphylococcus aureus [3]; 2 µM against Staphylococcus aureus [4].
Consider `CCCCCCOC(=O)C[N+](C)(C)CCN1CC[N+](C)(CC(=O)OCCCCCC)CC1.[Br-].[Br-]`, for which, in data set [1], the Stability entry is “Stable”. Further, the MIC in the data set on Pseudomonas aeruginosa, in the data set with Staphylococcus aureus [2], in the data set with Enterococcus faecalis, with Escherichia coli, against Staphylococcus aureus [3] and against Staphylococcus aureus [4] was above 250 µM each time.
Consider `CCCCCCCCCCCCOC(=O)C[N+](C)(C)CC[N+](C)(C)CC(=O)OCCCCCCCCCCCC.[Br-].[Br-]`, for which the Stability result in data set [1] is given as “Stable”. Also, the MIC came to 125 µM in the data set with Pseudomonas aeruginosa; 16 µM with Staphylococcus aureus [2]; 32 µM with Enterococcus faecalis; 63 µM against Escherichia coli; 32 µM against Staphylococcus aureus [3]; 16 µM with Staphylococcus aureus [4].
As for `CCCCCCCCCCCCOC(=O)C[N+](C)(C)CCCN(CCC[N+](C)(C)CC(=O)OCCCCCCCCCCCC)CCC[N+](C)(C)CC(=O)OCCCCCCCCCCCC.[Br-].[Br-].[Br-]`, the Stability entry in data set [1] is “Stable”. Besides, the MIC was above 250 µM with Pseudomonas aeruginosa; 8 µM with Staphylococcus aureus [2]; 8 µM against Enterococcus faecalis; 8 µM with Escherichia coli; 8 µM against Staphylococcus aureus [3]; 4 µM in the data set with Staphylococcus aureus [4].
`CCCCCCCCCOC(=O)C[N+](C)(C)CCCN(CCC[N+](C)(C)CC(=O)OCCCCCCCCC)CCC[N+](C)(C)CC(=O)OCCCCCCCCC.[Br-].[Br-].[Br-]`: the Stability result in data set [1] was “Stable”. The minimum inhibitory concentration (MIC) stood at 16 µM in the data set with Pseudomonas aeruginosa; 4 µM against Staphylococcus aureus [2]; 8 µM with Enterococcus faecalis; 4 µM against Escherichia coli; 4 µM against Staphylococcus aureus [3]; 2 µM with Staphylococcus aureus [4].
As to `CCCCCCCOC(=O)C[N+](C)(C)Cc1ccccc1.[Br-]`, in data set [1], the Stability result is “Stable”. The MIC with Pseudomonas aeruginosa, in the data set on Staphylococcus aureus [2], against Enterococcus faecalis, against Escherichia coli, against Staphylococcus aureus [3] and with Staphylococcus aureus [4] was above 250 µM in each case.
`CCCCCCCOC(=O)C[N+](C)(C)CCC[N+](C)(CCC[N+](C)(C)CC(=O)OCCCCCCC)CC(=O)OCCCCCCC.[Br-].[Br-].[Br-]`: the Stability entry in data set [1] was “Stable”. In addition, the MIC in the data set on Pseudomonas aeruginosa was found to be 125 µM; against Staphylococcus aureus [2] it was 16 µM; in the data set on Enterococcus faecalis, 32 µM; against Escherichia coli, 125 µM; in the data set with Staphylococcus aureus [3], 32 µM; against Staphylococcus aureus [4], 32 µM.
As for `CCCCCCOC(=O)C[N+](C)(C)CCC[N+](C)(CCC[N+](C)(C)CC(=O)OCCCCCC)CC(=O)OCCCCCC.[Br-].[Br-].[Br-]`, the Stability result in data set [1] is “Stable”. Besides, the MIC in the data set with Pseudomonas aeruginosa is above 250 µM; against Staphylococcus aureus [2], 125 µM; with Enterococcus faecalis, 250 µM; against Escherichia coli, above 250 µM; in the data set on Staphylococcus aureus [3], 250 µM; against Staphylococcus aureus [4] it was 250 µM.
As for `CCCCCCCCCOC(=O)C[N+](C)(C)Cc1ccccc1.[Br-]`, the Stability result in data set [1] is recorded as “Stable”. Moreover, the MIC in the data set on Pseudomonas aeruginosa was above 250 µM; against Staphylococcus aureus [2] it was 32 µM; in the data set on Enterococcus faecalis, 125 µM; in the data set on Escherichia coli, 125 µM; with Staphylococcus aureus [3], 63 µM; with Staphylococcus aureus [4], 32 µM.
For the molecule `CCCCCCCCCCCCOC(=O)C[N+](C)(C)Cc1ccccc1.[Br-]`, in data set [1], the Stability result was “Stable”. In addition, the minimum inhibitory concentration (MIC) in the data set on Pseudomonas aeruginosa is 63 µM; against Staphylococcus aureus [2] it was 2 µM; in the data set on Enterococcus faecalis it was 4 µM; against Escherichia coli, 16 µM; in the data set with Staphylococcus aureus [3] it was 2 µM; with Staphylococcus aureus [4], 2 µM.
Consider `CCCCCCCCCOC(=O)C[N+](C)(C)CCN1CC[N+](C)(CC(=O)OCCCCCCCCC)CC1.[Br-].[Br-]`, for which the Stability result in data set [1] is reported as “Stable”. The MIC amounted to 125 µM in the data set with Pseudomonas aeruginosa; 4 µM in the data set with Staphylococcus aureus [2]; 8 µM in the data set on Enterococcus faecalis; 16 µM against Escherichia coli; 4 µM against Staphylococcus aureus [3]; 4 µM against Staphylococcus aureus [4].
Turning to `CCCCCCCCCOC(=O)C[N+](C)(C)CCC[N+](C)(CCC[N+](C)(C)CC(=O)OCCCCCCCCC)CC(=O)OCCCCCCCCC.[Br-].[Br-].[Br-]`, the Stability result in data set [1] is recorded as “Stable”. Moreover, the MIC against Pseudomonas aeruginosa was 32 µM; in the data set with Staphylococcus aureus [2], 8 µM; against Enterococcus faecalis, 16 µM; in the data set on Escherichia coli, 8 µM; in the data set on Staphylococcus aureus [3], 8 µM; with Staphylococcus aureus [4], 4 µM.
For the molecule `CCCCCCOC(=O)C[N+](C)(C)CC[N+](C)(C)CC(=O)OCCCCCC.[Br-].[Br-]`, the Stability result in data set [1] is “Stable”. The MIC in the data set with Pseudomonas aeruginosa was above 250 µM; against Staphylococcus aureus [2], 250 µM; in the data set with Enterococcus faecalis, above 250 µM; against Escherichia coli, above 250 µM; with Staphylococcus aureus [3] it was above 250 µM; against Staphylococcus aureus [4] it was above 250 µM.
Consider `CCCCCCCCOC(=O)C[N+](C)(C)CCCN(CCC[N+](C)(C)CC(=O)OCCCCCCCC)CCC[N+](C)(C)CC(=O)OCCCCCCCC.[Br-].[Br-].[Br-]`, for which, in data set [1], the Stability entry is reported as “Stable”. Moreover, the minimum inhibitory concentration (MIC) with Pseudomonas aeruginosa turned out to be 63 µM; in the data set on Staphylococcus aureus [2], 4 µM; in the data set with Enterococcus faecalis it was 8 µM; with Escherichia coli, 8 µM; in the data set on Staphylococcus aureus [3], 4 µM; against Staphylococcus aureus [4], 2 µM.
For the molecule `CCCCCCCCCCCCCCOC(=O)C[N+](C)(C)CC[N+](C)(C)CC(=O)OCCCCCCCCCCCCCC.[Br-].[Br-]`, the Stability entry in data set [1] is given as “Stable”. For the same molecule, the MIC is above 250 µM in the data set with Pseudomonas aeruginosa; 16 µM against Staphylococcus aureus [2]; 32 µM in the data set with Enterococcus faecalis; 250 µM in the data set with Escherichia coli; 32 µM in the data set with Staphylococcus aureus [3]; 16 µM against Staphylococcus aureus [4].
As for `CCCCCCCCOC(=O)C[N+](C)(C)CCN1CC[N+](C)(CC(=O)OCCCCCCCC)CC1.[Br-].[Br-]`, in data set [1], the Stability result is given as “Stable”. For the same molecule, the MIC in the data set with Pseudomonas aeruginosa is above 250 µM; in the data set with Staphylococcus aureus [2], 32 µM; against Enterococcus faecalis, 63 µM; in the data set on Escherichia coli it was 250 µM; against Staphylococcus aureus [3], 63 µM; against Staphylococcus aureus [4], above 250 µM.
With `CCCCCCOC(=O)C[N+](C)(C)Cc1ccccc1.[Br-]`, the Stability result in data set [1] is recorded as “Stable”. For the same molecule, the MIC against Pseudomonas aeruginosa, with Staphylococcus aureus [2], in the data set with Enterococcus faecalis, in the data set on Escherichia coli, with Staphylococcus aureus [3] and against Staphylococcus aureus [4] was above 250 µM in each case.
As to `CCCCCCCCCCOC(=O)C[N+](C)(C)CC[N+](C)(C)CC(=O)OCCCCCCCCCC.[Br-].[Br-]`, the Stability result in data set [1] is given as “Stable”. Further, the minimum inhibitory concentration (MIC) in the data set on Pseudomonas aeruginosa was 32 µM; against Staphylococcus aureus [2] it was 8 µM; against Enterococcus faecalis, 16 µM; in the data set with Escherichia coli, 8 µM; with Staphylococcus aureus [3], 8 µM; against Staphylococcus aureus [4], 4 µM.
